Data set [1] has as its system articular cartilage defect. Description: Microfracture (MF) surgery-induced cartilage defect (CD) rat model. The format is in vivo, Sprague-Dawley (SD) rats. As to conditions: hydrogel containing compound; for Cartilage regeneration, appearance of the defect: 6 weeks of post-surgery. The procedure:
Ca(NO3)2·4H2O was obtained from Sinopharm Chemical Reagent. Waxy starch (amylopectin more than 90%) was purchased from Qinhuangdao Lihua Starch. For the preparation of starch hydrogels, a fixed water-to-starch mass ratio of 5 was used, and the crosslinker Ca(NO3)2·4H2O was dissolved in the starch solution. The mixture was stirred at 60 °C for 1 h to obtain a viscous gel. The starch hydrogel prepared with Ca(NO3)2·4H2O and Waxy starch was named as 14 Gel. The hydrogel is sterilized by UV for 30 min and then used. HL-43 and Grapiprant were each dissolved in the DMSO solvent (100 mM). Compound/14 Gel was prepared by mixing the solutions at a weight ratio of 1/10 (w/w).
Thirty-six male Sprague-Dawley (SD) rats (280–300 g) were randomized into three groups (each group n = 4 rats for each time point), […] were used as controls (n = 4). After anesthetizing with 3.5% chloral hydrate (10 ml/kg), the rats were fixed on the operating table in supine position and the skin was prepared and disinfected. A 2 cm longitudinal incision along the medial margin of the patella of the right knee was made with a scalpel and then the capsule was open to expose the articular cartilage surface. A manual drill with a diameter of 2 mm was used to drill holes in the femoral intercondylar fossa of the rat (2 mm × 2 mm). After washing with saline, the gauze was pressed and 100 μl 14 Gel containing appropriate drugs or vehicle were injected. After the injection, the compression flexes and compresses were applied several times to spread the gel throughout the knee joint. The ligaments and skin were sutured. After 2, 4, and 6 weeks, the repaired articular cartilage was histologically analyzed and correlation was scored.

Data set [2] relates to CRE-Luc in ATDC5 cells. As to the kind of experiment: CRE-Luc luciferase reporter assay. The format is cell-based, mouse. As to conditions: for CRE-Luc activity: 12 hr. How it is done: Six firefly luciferase reporters were used in the Luciferase assay, including CRE-Luc (PathDetect CRE cis-Reporting System; Stratagene, La Jolla CA) driven by a basic promoter (TATA box) plus four repeats of CRE; Sox9 promoter-Luc contains human SOX9 proximal promoter region (−1034 bp to +67 bp)[45]; 4 × 48-p89-Luc, mouse Col2a1 minimal promoter. AP-1-Luc, Nf-κb-Luc, STAT-Luc were obtained from Stratagene. Chondrocytes were cultured in 24-well plates and 300 ng firefly luciferase reporter constructs were transiently transfected using transfection reagent TransExellent-DNA (Cenji Biotech Inc, China) following manufacturer’s instruction, and 15 ng of the Copia-Renilla luciferase reporter was co-transfected as a normalization control. […] The Dual-Luciferase measurements were performed in triplicate using the Luciferase assay kit (Promega) and a LUMIstar Omega luminometer (BMG Labtech, Mornington, Australia).
(A reporter such as luciferase makes a cellular process visible.)

The test system of data set [3] is primary articular chondrocytes. As to the kind of experiment: Cell viability by CCK-8 assay. In kind it is cell-based, mouse. The note with it: 72 h, read-out: IC50 (cell viability, toxicity in chondrocytes). The procedure: The cell viability was evaluated by CCK-8 assay (Dojindo Molecular Technologies). Primary chondrocytes were plated in the 96-well plates and treated with the EP4 antagonists or DMSO for 72 h. A total of 10 μl CCK-8 was added to each well, the cells were incubated in the presence of CCK-8 for 2–3 h. The optical density (OD) of each well at 450 nm was recorded on a Microplate Reader (SPECTRA MAX190). The absorbance values were normalized by subtracting blank values of […]. The cell viability (% of control) is calculated as the percentage of (ODtest − ODblank)/(ODcontrol − ODblank). The 50% inhibitory concentration (IC50) was calculated with GraphPad Prism software using the sigmoidal dose-response function.
ATDC5 cell line was purchased from Riken BioResource Center (Tsukuba, Japan) and grown in a 1:1 mixture of DMEM/F12 medium (Corning, 10-092-CVR) supplemented with 5% fetal bovine serum (Gibco, 10099, USA) and 1% penicillin-streptomycin solution (Life Technologies). Cells were maintained at 37 °C under 5% CO2. Primary chondrocytes were obtained from knee joint cartilage of newborn mice. Knee joints were dissected from the tibia plateau and femoral condyle articular cartilage of mouse pups and digested in 0.1% collagenase type II (Sigma) overnight at 37 °C and chondrocytes were harvested by centrifugation. Primary chondrocytes were cultured at a density of 5 × 10^3 cells per ml at 37 °C with 5% CO2. DMEM/F12 medium with 10% fetal bovine serum (FBS) and 1% penicillin–streptomycin was used to culture the primary chondrocytes. Chondrogenic differentiation were induced with chondrogenic medium, which contains insulin-transferrin-selenium (ITS) (Sigma, I3146), 10 ng/ml TGF-β3 (PEPROTECH, 100-36E, USA), 100 nM Dexamethasone (Sigma, D4902), 50 μg/ml VC (Sigma), 1 mM sodium pyruvate (Sigma) and 40 μg/ml proline (Sigma), and/or treatment with rmIL-1β (R&D, 401-ML/CF), TNFα (PEPROTECH, 300-01A-50) in DMEM/F12 for indicated days. Western blotting was performed according to standard protocols. Antibodies used were: rabbit anti-Mmp3 (1:1000, HuaBio), rabbit anti-Mmp13 (1:500, abcam, ab39012), rabbit anti-p-CREB (1:2000, Cell Signaling Technology, 87G3), rabbit anti-CREB (1:2000, Cell Signaling Technology, 48H2), mouse anti-GAPDH (1:5000; Sigma-Aldrich, G8795), rabbit anti-Col2 (Abcam, Ab34712), rabbit anti-STAT3 (1:2000; Abcam, ab68153), rabbit anti-p-STAT3 (Y705) (1:2000; Abcam, ab76315), rabbit anti -p65 (1:1000; CST, 3034), rabbit anti-p-p65 (1:1000; CST, 3033), and rabbit anti-IκBα (1:1000; Abways, CY5026).
For orientation: Formazan colour is commonly taken as a measure of viable cells.

Data set [4] deals with zebrafish embryos. Description: Zebrafish embryo toxicity assay. Further details: Mortality / Deformities / Hatching: dose or concentration left out as unconfirmed. The note with it: for Mortality: zebrafish embryos; for Deformities / Hatching: zebrafish.
Method: A breeding stock of zebrafish at the age of 6–24 months is used for egg production. Fertilized eggs were collected and viable eggs were transferred to the 12-well plate at 26 °C. Fertilized eggs between the 4-cell and 128-cell stages be used for the toxicity test, with ten fertilized eggs per concentration and three replicates of each concentration, a total of 30 eggs for each concentration. […] DMSO was added as vehicle control. Hatching, morphological abnormalities and survival were assessed 24 and 72 h of post-fertilization (dpf) in zebrafish exposed to the chemicals.
Setting [5] is: 72 hpf, in comparison to Celecoxib and Grapiprant.

Read-outs that look alike come from different tables or passages of the source.

As a reminder, the IC50 is the concentration that inhibits the measured activity by half. For `C[C@H](NC(=O)c1c(-c2ccccc2)nnn1CCOc1ccc(F)cc1)c1ccc(C(=O)O)cc1` [HL-43], the “Cartilage repair, ICRS Macroscopic and ICRS Visual Histological scores” value in data set [1] (4 weeks after MF surgery) is “mild effects on cartilage repair”. Further, the “Cartilage regeneration, appearance of the defect” value in data set [1] was “surfaces were smooth and cartilage layers were regenerated”. In addition, the “CRE-Luc reporter activity under pro-inflammatory conditions” value in data set [2] (2 ng/ml IL-1β or 100 nM PGE2, 6 h) is on record as “dose-dependently activated”. The CRE-Luc activity result in data set [2] is on record as “increase CRE-Luc activity in a dose dependent manner”. Moreover, in data set [3], the IC50 is greater than 1000 µM. Moreover, the “Mortality rate, ranking” value in data set [4] (24 hpf, in comparison to Celecoxib and Grapiprant) is recorded as “lowest mortality rate”. The “Deformities rate, ranking” value in data set [4] (setting [5]) is recorded as “lowest deformities rate”. The “Hatching rate, ranking” value in data set [4] (setting [5]) is “highest hatching rate”. Besides, the Mortality in data set [4] (24hpf, 0.3, n=30) is 0/30; in data set [4] (24hpf, 1, n=30) it was 3/30; in data set [4] (24hpf, 3, n=30), 6/30. The Deformities in data set [4] (72hpf, 0.3, n=30) is reported as 2/30; in data set [4] (72hpf, 1, n=30), 2/30; in data set [4] (72hpf, 3, n=30), 4/30. The Hatching is 28/30 in data set [4] (72hpf, 0.3, n=30); 26/30 in data set [4] (72hpf, 1, n=30); 23/30 in data set [4] (72hpf, 3, n=30).
For the molecule `CCc1nc2c(C)nc(C)cc2n1-c1ccc(CCNC(=O)NS(=O)(=O)c2ccc(C)cc2)cc1` [Grapiprant], in data set [1], the “Cartilage regeneration, appearance of the defect” value is “still visible”. Further, the CRE-Luc activity entry in data set [2] is “increase CRE-Luc activity in a dose dependent manner”. Further, in data set [3] (Mus musculus, Chondrocyte), the IC50 came to 113 µM. Besides, the Mortality was 4/30 in data set [4] (24hpf, 0.3, n=30); 14/30 in data set [4] (24hpf, 1, n=30); 13/30 in data set [4] (24hpf, 3, n=30). Also, the Deformities in data set [4] (72hpf, 0.3, n=30) is listed as 4/30; in data set [4] (72hpf, 1, n=30), 3/30; in data set [4] (72hpf, 3, n=30), 4/30. Moreover, the Hatching was 24/30 in data set [4] (72hpf, 0.3, n=30); 16/30 in data set [4] (72hpf, 1, n=30); 17/30 in data set [4] (72hpf, 3, n=30).

Source of the values: publication PMC8901748, “A novel prostaglandin E receptor 4 (EP4) small molecule antagonist induces articular cartilage regeneration” (Cell Discovery, 2022).
